The test system of series [1] is small intestine. As to the kind of experiment: Intestine weight model in rats. The format is in vivo, SD rats. Particulars: modified peptides; two injections on days 1 & 3 at 1 mg/kg; intestine weight on day 6. The method, then:
In the pharmacology study, the conjugates were injected subcutaneously twice, on days 1 and 3 at 1 mg/kg (peptide dose) and intestine weight was performed on day 6. In addition to the PEGylated conjugates, GLP-2-Gly2 was injected at the same dose and regimen for comparison. The average of the intestine weight of each group was compared to that of the vehicle group.
In a different study, several of the PEGylated teduglutide were injected as a single dose at 1 mg/kg and the intestine weight performed on day 6.
Pharmacology and pharmacokinetic studies were performed with the most promising GLP-2 variants to evaluate their efficacy and longevity, respectively. The intestine weight model in rats was conducted to evaluate efficacy, by measuring percent increase of the intestine weight of treated animals over the vehicle group. In this study, the peptides were injected twice, on days 1 and 3 at 1 mg/kg and the intestine weight was conducted on day 6.
PEG20-FMS-V6, PEG20-Fmoc-V6 and PEG40-FMS-V6 were injected once at 1 mg/kg dose on day 1, while group D was also injected twice on days 1 & 3 at 1 mg/kg. The intestine weight was performed on day 6.
Three different reversible PEGylated GLP-2 variants using mutated peptide #4 were injected at 2 mg/kg (peptide dose), once every 6 days for 12 days. On the 12th day the intestine was weighted and compared to the control group. PEG30-FMS-V4 was injected at 0.5 mg/kg as well to evaluate the efficacy dose range.
In addition to PEG30-FMS-V4 and PEG30-Fmoc-V4 that have been pharmacology evaluated by small intestinal weight evaluation (As shown in Example 5), four other reversible PEGylated variant 4 (“V4”) conjugates and two reversible linker-V4 conjugates were synthesized. All the above were injected to 6 normal SD rats/group once at 2 mg/kg (peptide dose), while on the 6th day, animals were scarified, and the small intestine was weighted followed by histopathology evaluation. […] Therefore, slices from three areas of the intestine (duodenum, jejunum and ilium) were stained with hematoxylin and eosin and at least 7 Crypts+Villi length/slice were measured. The averaged Villi+Crypt length of each treatment group (n=6) was compared to the vehicle group (negative control) and calculated as percentage increase over vehicle.
Additional studies were conducted to evaluate the efficacy of the V4 peptide and the reversible MAL-FMS-V4. The long acting effect of V4 and the conjugates were evaluated at Day 6 and Day 10 following treatment (Study reference 15203). All test groups (n=9) were injected SC with 2 mg/kg peptide content at Day 1. At Days 6 and 10, animals were sacrificed and the small intestine underwent histopathology evaluation (6 animals for Day 6, 3 animals for Day 10). FIGS. 12 and 13 show the pharmacology effect of different V4 conjugates and Apraglutide and Glepaglutide as measured by the percent increase of small intestine weight and crypts plus villi length over vehicle, respectively.
To further evaluate the pharmacology efficacy of V4 and Cys-FMS-V4, an experiment was performed to test their acute and prolonged effect on the small intestine (Study reference 15205). In addition, V4 and Cys-FMS-V4 were administrated as a single SC injection on Day 1 at 3 different doses (0.5, 2.0 or 8.0 mg/kg peptide content, 6 rats per group) to assess the dose dependence effect. The pharmacological effect on small intestine weight and villi plus crypts length was measured at Days 3, 7 and 14, and the results are presented in FIGS. 15 and 16. […] It should be noted that this acute response was higher for V4 compared to Cys-FMS-V4 at all 3 dose levels.

Series [2] is described as follows: Pharmacokinetics of modified GLP-2 variants in rats. It counts as in vivo. To be noted: rat, serum, peptide dose 15 mg/kg.
Series [3] is described as follows: Stability of GLP-2 analogues on incubation at 37° C. (appearance, O.D. reading, RP-HPLC). The format is physicochemical. To be noted: following 48 h incubation at 37° C. The method, then: The GLP-2 analogues were tested for stability via appearance, O.D. reading (A.280, and A.325) and RP-HPLC (purity, and peak area) following t=0, 1 day, and 48 h incubation at 37° C.

In series [4] the target is T1, GLP-2 receptor (Homo sapiens, UniProt O95838).
T1 sequence (O95838 1-553): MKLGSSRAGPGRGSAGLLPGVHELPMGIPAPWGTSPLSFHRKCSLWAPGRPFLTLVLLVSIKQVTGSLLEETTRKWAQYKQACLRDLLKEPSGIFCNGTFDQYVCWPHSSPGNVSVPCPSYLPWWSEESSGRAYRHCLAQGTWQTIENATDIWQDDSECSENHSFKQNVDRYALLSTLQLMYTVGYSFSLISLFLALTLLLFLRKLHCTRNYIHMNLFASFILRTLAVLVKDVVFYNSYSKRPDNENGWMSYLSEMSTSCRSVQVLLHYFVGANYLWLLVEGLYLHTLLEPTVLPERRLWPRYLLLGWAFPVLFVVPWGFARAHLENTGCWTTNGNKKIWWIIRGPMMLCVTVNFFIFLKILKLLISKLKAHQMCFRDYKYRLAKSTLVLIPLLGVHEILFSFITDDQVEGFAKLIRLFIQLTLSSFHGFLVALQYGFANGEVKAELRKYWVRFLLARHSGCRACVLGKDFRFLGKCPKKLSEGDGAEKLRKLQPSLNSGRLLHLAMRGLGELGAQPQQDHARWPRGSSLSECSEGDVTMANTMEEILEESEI
As to the kind of experiment: GLP-2 receptor Cell Based Assay (CBA). Particulars: Table 7.
Procedure: Evaluation of in vitro binding affinity of the different peptides was assessed by using Cell Based Assay (CBA) in the presence of escalating doses of the different peptides.

A short description of series [5]: Solubility and stability in different buffer systems, concentrations, incubation and freeze-thaw. The format is physicochemical. To be noted: Histidine and NaPi, pH 6.8 to 7.5; 1-10 mg/mL; up to 3 days at 37° C.; up to three freeze-thaw cycles.

For orientation: half-life means the time needed for the level to fall by half in the phase considered. A high value points to slow loss.

Molecules are shown by their SMILES. Square brackets hold non-standard residues; d marks the D form. Peptide text beside a SMILES is read from it. Nle = CCCC[C@H](N)C(=O)O

With `CCCC[C@H](NC(=O)[C@H](CCC(=O)O)NC(=O)[C@H](CC(=O)O)NC(=O)[C@H](CO)NC(=O)[C@H](Cc1ccccc1)NC(=O)[C@H](CO)NC(=O)CNC(=O)[C@H](CCC(=O)O)NC(=O)CNC(=O)[C@@H](N)Cc1c[nH]cn1)C(=O)N[C@@H](CC(N)=O)C(=O)N[C@H](C(=O)N[C@H](C(=O)N[C@@H](CC(C)C)C(=O)N[C@@H](CC(=O)O)C(=O)N[C@@H](Cc1ccc(O)cc1)C(=O)N[C@@H](CC(C)C)C(=O)N[C@@H](C)C(=O)N[C@@H](C)C(=O)N[C@@H](CCCNC(=N)N)C(=O)N[C@@H](CC(=O)O)C(=O)N[C@@H](Cc1ccccc1)C(=O)N[C@H](C(=O)N[C@@H](CC(N)=O)C(=O)N[C@@H](Cc1c[nH]c2ccccc12)C(=O)N[C@@H](CC(C)C)C(=O)N[C@H](C(=O)N[C@@H](CCC(N)=O)C(=O)N[C@H](C(=O)N[C@@H](CCCCN)C(=O)N[C@H](C(=O)N[C@H](C(=O)N[C@@H](CC(=O)O)C(N)=O)[C@@H](C)O)[C@@H](C)CC)[C@@H](C)O)[C@@H](C)CC)[C@@H](C)CC)[C@@H](C)CC)[C@@H](C)O` [Variant 5] (H-HGEGSFSDE[Nle]NTILDYLAARDFINWLIQTKITD-NH2), the “Increase of intestine weight over vehicle (%)” value in series [1] came out at 10%. The compound further showed a half-life in series [2] of 6.5 h. Also, the Solubility via appearance entry in series [3] is “V5: clear”. For the same compound, in series [4], the “EC50 Ratio to Teduglutide” value is 2.4.

As to `CCCC[C@H](NC(=O)[C@H](CCC(=O)O)NC(=O)[C@H](CC(=O)O)NC(=O)[C@H](CO)NC(=O)[C@H](Cc1ccccc1)NC(=O)[C@H](CO)NC(=O)CNC(=O)[C@H](CCC(=O)O)NC(=O)CNC(=O)[C@@H](N)Cc1c[nH]cn1)C(=O)N[C@@H](CC(N)=O)C(=O)N[C@H](C(=O)N[C@H](C(=O)N[C@@H](CC(C)C)C(=O)N[C@@H](CC(=O)O)C(=O)N[C@@H](CC(C)C)C(=O)N[C@@H](CC(C)C)C(=O)N[C@@H](C)C(=O)N[C@@H](C)C(=O)N[C@@H](CCCNC(=N)N)C(=O)N[C@@H](CC(=O)O)C(=O)N[C@@H](Cc1ccccc1)C(=O)N[C@H](C(=O)N[C@@H](CC(N)=O)C(=O)N[C@@H](Cc1c[nH]c2ccccc12)C(=O)N[C@@H](CC(C)C)C(=O)N[C@H](C(=O)N[C@@H](CCC(N)=O)C(=O)N[C@H](C(=O)N[C@@H](CCCCN)C(=O)N[C@H](C(=O)N[C@H](C(=O)N[C@@H](CC(=O)O)C(=O)O)[C@@H](C)O)[C@@H](C)CC)[C@@H](C)O)[C@@H](C)CC)[C@@H](C)CC)[C@@H](C)CC)[C@@H](C)O` [Variant 6] (H-HGEGSFSDE[Nle]NTILDLLAARDFINWLIQTKITD-OH), the “Increase of intestine weight over vehicle (%)” value in series [1] was 43%. Also, the half-life in series [2] is 12.1 h. Further, the Solubility via appearance entry in series [3] was “V6: clear”. In addition, the “Stability via RP-HPLC main peak” value in series [3] (change of main peak) is recorded as “(~1.5%)”. The “CMC perspective, combining purity and solubility” value in series [5] is given as “outperformed the rest of the peptides”. Also, the “EC50 Ratio to Teduglutide” value in series [4] amounted to 3.8.

The record behind these values is US20200254065A1, “LONG-ACTING GLP-2 ANALOGS” (OPKO Biologics Ltd., priority 2019, published 2020).
